In brackets after ≈: the same amount, converted by molar mass. Like-named read-outs stand apart in the source and are kept apart here.
Columns and labels:
[1] = tested on: Oryzaephilus surinamensis susceptible strain VOS48; test: Grain protectant bioassay on treated wheat, O. surinamensis susceptible; assay type: in vivo; details: for Progeny reduction (%): vs untreated control
[2] = tested on: Cryptolestes ferrugineus strain QCF73 (resistant to phosphine); test: Grain protectant bioassay on treated wheat, C. ferrugineus resistant; assay type: in vivo; details: for Progeny reduction (%): vs untreated control
[3] = tested on: M. persicae (green peach aphid) insecticide-susceptible population; test: Leaf dip bioassay, green peach aphid, susceptible population; assay type: in vivo, Myzus persicae; details: Susceptible population, 96 hours exposure
Method: (§1) Each colony was maintained separately on bok choi plants ([…]) within an exclusion cage in a constant temperature room at 24° C. with a photoperiod of 16:8 LD.
(§2) Laboratory bioassays were used to determine the efficacy of flavesone against M. persicae following the leaf dip method described in Moores et al. (1994, Pesticide Biochemistry and Physiology, 49, 114-120). A pilot study was first conducted which confirmed that the leaf dip method was appropriate to elicit a clear dose response for Flavocide 500EW against M. persicae, and to determine the appropriate rate range and timing of mortality assessments (scored at 24, 48, 72 & 96 hours) (data not shown).
(§3) Bioassays were then conducted to assess the efficacy of flavesone against a susceptible and resistant population of M. persicae, and to calculate LC values. The efficacy of a conventional insecticide, pirimicarb, was tested for comparison. Nine concentrations of flavesone ranging from 1×10^−3 to 10 times the proposed field rate (Table 15), and six concentrations of pirimicarb were serially diluted and tested, along with a water control, against the susceptible and resistant aphid populations. Leaf discs (25 mm diameter) cut from bok choi leaves were submerged for 1 second in the insecticide solutions, or in the water control, and placed adaxial side up on 10 g/L agar in 35 mm petri dishes. Six replicate leaf discs were prepared per treatment. Once leaves were air-dry, eight M. persicae nymphs were transferred to each insecticide-dipped leaf disc using a fine-haired paintbrush.
(§4) After aphid introduction, each petri dish was inverted onto a lid containing a 25 mm diameter filter paper to control humidity. All petri dishes were then placed into an incubator held at 18° C.±2° C. with a photoperiod of 16:8 LD cycle. At 48 & 96 hours, aphids were scored as alive (vibrant and moving freely), dead (not moving over a 5 second period), or incapacitated (inhibited movement).
(§5) Dose-response curves were generated by plotting percentage mortality against log concentration. Mortality data was analysed using a logistic regression model with random effects. Logistic regression is suited for the analysis of binary response data (i.e. dead/alive) with the random effect component of the model controlling for the non-independence of mortality scores within replicates. […] Population differences were tested by comparing the change in model deviance with and without the population factor (different regression intercepts for each population). Differences in regression slopes between populations were tested by comparing the change in model deviance with and without the population×dose interaction term.

[4] = tested on: Tribolium castaneum susceptible strain QTC4; test: Grain protectant bioassay on treated wheat, T. castaneum susceptible; assay type: in vivo; details: for Progeny reduction (%): vs untreated control
[5] = tested on: Oryzaephilus surinamensis strain QOS302 (resistant to fenitrothion & chlorpyrifos-methyl); test: Grain protectant bioassay on treated wheat, O. surinamensis resistant; assay type: in vivo; details: for Progeny reduction (%): vs untreated control
[6] = tested on: Cryptolestes ferrugineus susceptible strain QCF31; test: Grain protectant bioassay on treated wheat, C. ferrugineus susceptible; assay type: in vivo; details: for Progeny reduction (%): vs untreated control
[7] = tested on: M. persicae (green peach aphid) population resistant to carbamates and synthetic pyrethroids; test: Leaf dip bioassay, green peach aphid, resistant population; assay type: in vivo, Myzus persicae; details: 96 hours exposure; for LC50: Myzus persicae, foliar
Method: as §1, §2, §3, §4, §5

[8] = tested on: Halotydeus destructor resistant population (synthetic pyrethroid resistance); test: Coated plastic vial bioassay, redlegged earth mite, resistant population; assay type: in vivo
Method: The test compositions included 0.1% Tween 20 non-ionic surfactant to aid the spread of insecticides when coating plastic vials. This concentration of Tween 20 has been previously shown to have no toxic effect on H. destructor. For each insecticide concentration tested, 3, 10, 30, 100, 300, 1000, 3000 and 10000 mg a.i./L (ppm), approximately 10 mL of solution was poured into a 15 mL plastic vial and swirled to ensure a complete coating, with excess liquid removed. Eight vials were coated per concentration and were left to dry overnight. Control vials were treated in the same way but with water used in place of test composition.
Eight susceptible H. destructor mites were then placed into each vial along with a leaf of common vetch (Vicia sativa). The leaf was added to provide food and increase humidity. Vials were then sealed with a lid and placed at 18° C. After 4, 6, 8 and 24 hours of exposure, the mites were scored as alive (moving freely), incapacitated (inhibited movement), or dead (no movement over a 5 second period).
The resistant population of H. destructor was collected from a lucerne paddock in the Upper South-East district of South Australia, where resistance to synthetic pyrethroids was confirmed in late 2016.
The data produced in the assays were assessed for concentrations that caused 50, 90 and 99% mortality (lethal concentration, LC), together with 95% confidence intervals (CIs) and were estimated from observations of mortality after 24 hours exposure using a binomial logistic regression (Robertson & Preisler, 1992, Pesticide Bioassays with Arthropods. CRC: Boca Raton; Venables & Ripley, 2002, Modern Applied Statistics with S. Springer: New York). Population differences were tested by comparing the change in model deviance with and without the population factor (different regression intercepts for each population). Differences in regression slopes between populations were tested by comparing the change in model deviance with and without the population×dose interaction term. The resistance ratio of the insecticide-resistant population was estimated as the ratio of its LC50 to that of the susceptible population. All analyses were performed using R 3.3. (R Core Team 2017, R: A language and environment for statistical computing. R Foundation for Statistical Computing, Vienna, Austria. http://www.R-project.org).

[9] = Oryzaephilus surinamensis, 336 h, 25 mg/kg, 2 weeks, mean ± SE, read-out: Adult mortality (%)
[10] = Oryzaephilus surinamensis, 336 h, 60 mg/kg, 2 weeks, mean ± SE, read-out: Adult mortality (%)
[11] = Cryptolestes ferrugineus, 336 h, 25 mg/kg, 2 weeks, mean ± SE, read-out: Adult mortality (%)
[12] = Cryptolestes ferrugineus, 336 h, 60 mg/kg, 2 weeks, mean ± SE, read-out: Adult mortality (%)
[13] = Resistant population, 24 hours exposure

In the case of `CC(C)C(=O)C1C(=O)C(C)(C)C(=O)C(C)(C)C1=O` [Flavesone, 1-isobutyroyl-3,3,5,5-tetramethylcyclohexane-2,4,6-trione], the “Adult mortality (%)” value ([1]; 25 mg/kg, 2 weeks, mean ± SE) is reported as 22.7 ± 2.4%, the Live adult progeny ([1]; 25 mg/kg, mean ± SE) is reported as 1.3 ± 0.7 and the “Progeny reduction (%)” value ([1]; 25 mg/kg) is reported as 99.6%. The “Adult mortality (%)” value ([1]; 60 mg/kg, 2 weeks, mean ± SE) was 91.3 ± 5.9%, the Live adult progeny ([1]; 60 mg/kg, mean ± SE) was 0.0 ± 0.0 and the “Progeny reduction (%)” value ([1]; 60 mg/kg) was 100%. It also gave a mortality at 25 mg/kg [1, 9] of 22%, a mortality at 60 mg/kg [1, 10] of 91% and a Live adult progeny ([2]; 25 mg/kg, mean ± SE) of 83.7 ± 6.5. For the same compound, the “Progeny reduction (%)” value ([2]; 25 mg/kg) was 75.7%, the “Progeny reduction (%)” value ([2]; 25 mg/kg, listed as flavesone) was ~75% and the Live adult progeny ([2]; 60 mg/kg, mean ± SE) was 0.0 ± 0.0. The “Progeny reduction (%)” value ([2]; 60 mg/kg) was 100%, the mortality at 25 mg/kg [2, 11] was 3.3 ± 1.3% and the mortality at 60 mg/kg [2, 12] was 62%. The LC50 ([3]; Myzus persicae, foliar, read-out: LC50 (mg a.i./L)) was 2730 µg/mL (≈ 10.8 mM), the “LC90 (mg a.i./L)” value [3] was 6,034 mg a.i./L and the “LC99 (mg a.i./L)” value [3] was 14,330 mg a.i./L. The Live adult progeny ([4]; 25 mg/kg, mean ± SE) was 120.0 ± 16.1, the Live adult progeny ([4]; 60 mg/kg, mean ± SE) was 65.0 ± 3.2 and the “Progeny reduction (%)” value ([4]; 60 mg/kg) was 45.2%. The “Progeny reduction (%)” value ([4]; 60 mg/kg, listed as flavesone) was 45%, the mortality at 25 mg/kg ([4]; Tribolium castaneum, 336 h, 25 mg/kg, 2 weeks, mean ± SE, read-out: Adult mortality (%)) was 0% and the mortality at 60 mg/kg ([4]; Tribolium castaneum, 336 h, 60 mg/kg, 2 weeks, mean ± SE, read-out: Adult mortality (%)) was 0%. For the same compound, the Live adult progeny ([5]; 25 mg/kg, mean ± SE) was 160.3 ± 15.7, the “Progeny reduction (%)” value ([5]; 25 mg/kg) was 61.2% and the “Adult mortality (%)” value ([5]; 60 mg/kg, 2 weeks, mean ± SE) was 14.7 ± 8.7%. For the same compound, the Live adult progeny ([5]; 60 mg/kg, mean ± SE) was 0.0 ± 0.0, the “Progeny reduction (%)” value ([5]; 60 mg/kg) was 100% and the mortality at 25 mg/kg [5, 9] was 0.7%. For the same compound, the mortality at 60 mg/kg [5, 10] was 14%, the Live adult progeny ([6]; 25 mg/kg, mean ± SE) was 72.0 ± 20.3 and the “Progeny reduction (%)” value ([6]; 25 mg/kg) was 76.5%. For the same compound, the “Progeny reduction (%)” value ([6]; 25 mg/kg, listed as flavesone) was ~75%, the Live adult progeny ([6]; 60 mg/kg, mean ± SE) was 0.0 ± 0.0 and the “Progeny reduction (%)” value ([6]; 60 mg/kg) was 100%. For the same compound, the mortality at 25 mg/kg [6, 11] was 27.5 ± 17.5%, the mortality at 60 mg/kg [6, 12] was 90% and the LC50 ([7]; Resistant population, read-out: LC50 (mg a.i./L)) was 3150 µg/mL (≈ 12.5 mM). For the same compound, the LC50 ([7]; susceptible and resistant populations, read-out: LC50) was 2730 to 3150 µg/mL (≈ 10.8 to 12.5 mM), the “LC90 (mg a.i./L)” value ([7]; Resistant population) was 7,929 mg a.i./L and the “LC99 (mg a.i./L)” value ([7]; Resistant population) was 21,708 mg a.i./L. For the same compound, the LC50 ([8]; Halotydeus destructor, 24 h, Resistant population, 24 hours exposure, read-out: LC50 (mg a.i./L)) was 34.2 µg/mL (≈ 0.136 mM), the “LC50 (mg a.i./L)” value [8, 13] was 34.22 mg a.i./L and the “LC90 (mg a.i./L)” value [8, 13] was 117.89 mg a.i./L. For the same compound, the “LC99 (mg a.i./L)” value [8, 13] was 454.76 mg a.i./L and the “concentration causing 50% mortality” value ([8]; both susceptible and insecticide-resistant populations, 24 hours) was 34−40 mg a.i./L.

— US11259522B2, “Control of resistant pests” (priority 2017, dated 2022)
